The record followed here is patent US9567334B2, “Quinolone derivatives as fibroblast growth factor receptor inhibitors” (Principia Biopharma, Inc., priority 2014, dated 2017).

This experiment deals with SNU-16 cells. The experiment in a line: Inhibition of FGFR2-dependent cell growth (Cell-titer Glo, 72 hrs). The following applies: Homo sapiens, SNU-16, 72 h, read-out: SNU16 IC50 values.

As a reminder, the IC50 is the concentration at which inhibition is half-maximal. As to `C=CC(=O)N1CCN(CCCn2c(=O)c(-c3c(Cl)c(OC)cc(OC)c3Cl)cc3cnc(NC4COC4)nc32)CC1` [Example 66, 8-(3-(4-acryloylpiperazin-1-yl)propyl)-6-(2,6-dichloro-3,5-dimethoxyphenyl)-2-(oxetan-3-ylamino)pyrido[2,3-d]pyrimidin-7(8H)-one], the IC50 was over 5 µM.
